The source of these data is US9242987B2, “Heterocyclyl pyrazolopyrimidine analogues as JAK inhibitors” (Cellzome Limited, priority 2009, dated 2016).

Usually IC50 stands for the concentration at which inhibition is half-maximal.

Where a name gives a salt, the structure may show the parent alone.

For one assay, the target named is T1, JAK2 (Homo sapiens, UniProt O60674).
T1 construct: endogenous in cells; host or cells: Mixed Molt4/Ramos lysate (1:2)
Nature of the assay: Kinobeads assay, JAK2. The format is binding. The conditions noted are these: mixed Molt4/Ramos cell lysate, dot blot detection. Put shortly: (§1)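 Competition pulldown: compound dilution series incubated 3 h in cold room with immobilized aminopyrido-pyrimidine beads and mixed Molt4/Ramos lysate (1:2, 10 mg/mL protein) in DP buffer pH 7.4 with NP40. Bead-bound JAK2/JAK3 eluted, quantified by antibody dot blot with infrared detection; IC50 from dose-response curves.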

The target in a further assay is T2, JAK3 (Homo sapiens, UniProt P52333).
T2 construct: endogenous in cells; host or cells: Mixed Molt4/Ramos lysate (1:2)
T2 sequence (P52333 1-1124): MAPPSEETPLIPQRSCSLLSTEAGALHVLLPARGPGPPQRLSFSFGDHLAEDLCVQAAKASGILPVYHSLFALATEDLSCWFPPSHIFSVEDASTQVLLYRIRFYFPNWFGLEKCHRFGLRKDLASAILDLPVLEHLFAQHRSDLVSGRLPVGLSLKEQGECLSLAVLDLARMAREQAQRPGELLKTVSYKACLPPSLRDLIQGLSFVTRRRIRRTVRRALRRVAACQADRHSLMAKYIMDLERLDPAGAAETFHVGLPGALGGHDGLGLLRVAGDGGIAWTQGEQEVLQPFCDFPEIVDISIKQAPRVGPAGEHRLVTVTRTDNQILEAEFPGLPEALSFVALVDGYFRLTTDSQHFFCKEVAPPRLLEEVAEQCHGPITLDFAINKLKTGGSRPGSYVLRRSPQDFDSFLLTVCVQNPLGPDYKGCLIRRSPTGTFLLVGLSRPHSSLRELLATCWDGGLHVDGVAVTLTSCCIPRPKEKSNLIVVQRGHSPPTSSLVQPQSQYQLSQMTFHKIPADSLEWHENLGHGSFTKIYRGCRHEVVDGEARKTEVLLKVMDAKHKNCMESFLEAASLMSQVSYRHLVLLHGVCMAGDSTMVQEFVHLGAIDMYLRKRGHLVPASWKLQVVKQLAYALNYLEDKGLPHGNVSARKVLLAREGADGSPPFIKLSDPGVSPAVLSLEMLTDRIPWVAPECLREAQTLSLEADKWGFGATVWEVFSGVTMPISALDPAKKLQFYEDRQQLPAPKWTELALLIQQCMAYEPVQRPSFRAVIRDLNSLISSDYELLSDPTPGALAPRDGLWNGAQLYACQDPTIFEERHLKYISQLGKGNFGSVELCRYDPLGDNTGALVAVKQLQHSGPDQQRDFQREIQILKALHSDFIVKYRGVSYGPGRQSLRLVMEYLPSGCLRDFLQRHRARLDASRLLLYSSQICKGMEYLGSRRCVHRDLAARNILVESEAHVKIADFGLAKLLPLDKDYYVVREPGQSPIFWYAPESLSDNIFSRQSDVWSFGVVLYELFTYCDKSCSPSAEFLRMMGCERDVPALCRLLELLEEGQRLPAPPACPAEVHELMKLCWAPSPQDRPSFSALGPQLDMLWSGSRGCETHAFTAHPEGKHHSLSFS
Nature of the assay: Kinobeads assay, JAK3. The format is binding. The conditions noted are these: mixed Molt4/Ramos cell lysate, dot blot detection. Put shortly: as §1

T1 sequence (O60674 whole entry): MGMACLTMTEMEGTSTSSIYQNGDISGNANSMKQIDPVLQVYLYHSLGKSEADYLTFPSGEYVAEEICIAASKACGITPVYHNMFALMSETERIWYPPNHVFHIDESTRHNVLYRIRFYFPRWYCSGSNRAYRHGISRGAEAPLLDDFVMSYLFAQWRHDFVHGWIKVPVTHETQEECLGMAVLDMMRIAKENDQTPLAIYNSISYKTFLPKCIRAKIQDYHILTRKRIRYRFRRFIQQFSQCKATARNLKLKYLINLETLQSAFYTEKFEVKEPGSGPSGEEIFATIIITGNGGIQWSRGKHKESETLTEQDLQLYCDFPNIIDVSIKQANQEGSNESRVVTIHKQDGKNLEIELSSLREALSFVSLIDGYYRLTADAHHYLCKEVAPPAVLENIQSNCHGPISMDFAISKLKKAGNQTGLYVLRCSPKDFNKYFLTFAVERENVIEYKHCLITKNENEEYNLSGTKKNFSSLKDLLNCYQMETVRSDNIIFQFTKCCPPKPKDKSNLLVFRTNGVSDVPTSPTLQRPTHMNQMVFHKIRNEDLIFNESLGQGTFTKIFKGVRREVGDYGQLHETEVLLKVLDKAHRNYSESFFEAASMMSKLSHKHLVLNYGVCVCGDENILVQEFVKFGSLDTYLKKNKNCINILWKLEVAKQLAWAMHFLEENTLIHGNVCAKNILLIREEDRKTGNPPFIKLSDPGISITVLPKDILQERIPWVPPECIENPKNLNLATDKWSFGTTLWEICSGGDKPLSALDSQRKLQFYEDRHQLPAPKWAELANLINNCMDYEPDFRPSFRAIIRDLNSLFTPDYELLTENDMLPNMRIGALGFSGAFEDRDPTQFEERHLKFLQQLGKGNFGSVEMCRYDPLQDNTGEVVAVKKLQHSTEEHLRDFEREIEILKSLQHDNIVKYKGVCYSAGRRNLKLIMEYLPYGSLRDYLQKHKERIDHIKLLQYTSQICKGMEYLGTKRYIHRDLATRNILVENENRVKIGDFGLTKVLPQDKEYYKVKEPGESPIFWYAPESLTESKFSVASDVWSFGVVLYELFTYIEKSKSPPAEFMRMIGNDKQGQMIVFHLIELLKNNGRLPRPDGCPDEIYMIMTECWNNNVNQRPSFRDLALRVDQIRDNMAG

With `Cn1cc(Nc2ncc3cnn(Cc4cccc(C#N)c4F)c3n2)cn1` [Example 107, 2-Fluoro-3-((6-((1-methyl-1H-pyrazol-4-yl)amino)-1H-pyrazolo[3,4-d]pyrimidin-1-yl)methyl)benzonitrile], the IC50 against JAK2 was 1 to 10 µM; on JAK3, less than 0.1 µM.

For `Cn1cc(Nc2ncc3cnn(Cc4cccc(F)c4C#N)c3n2)cn1` [Example 108, 2-Fluoro-6-((6-((1-methyl-1H-pyrazol-4-yl)amino)-1H-pyrazolo[3,4-d]pyrimidin-1-yl)methyl)benzonitrile], the IC50 was in the range of 1 to 10 µM against JAK2 and 0.1 to 1 µM against JAK3.

On to `Cc1c(Nc2ncc3cnn(Cc4ccccc4)c3n2)cnn1C` [Example 109, 1-Benzyl-N-(1,5-dimethyl-1H-pyrazol-4-yl)-1H-pyrazolo[3,4-d]pyrimidin-6-amine], for which the IC50 against JAK2 was not below 10 µM; at JAK3 it was 0.1 to 1 µM.

`Cc1nn(C)cc1Nc1ncc2cnn(Cc3ccccc3)c2n1` [Example 110, 1-Benzyl-N-(1,3-dimethyl-1H-pyrazol-4-yl)-1H-pyrazolo[3,4-d]pyrimidin-6-amine]: the IC50 against JAK2 was not below 10 µM; at JAK3, 0.1 to 1 µM.

As to `Cn1cc(Nc2ncc3cnn(Cc4ccccc4C4CC4)c3n2)cn1` [Example 111, 1-(2-Cyclopropylbenzyl)-N-(1-methyl-1H-pyrazol-4-yl)-1H-pyrazolo[3,4-d]pyrimidin-6-amine], the IC50 is 1 to 10 µM on JAK2 and less than 0.1 µM against JAK3.

On to `CC(C)(O)Cn1cc(Nc2ncc3cnn(Cc4ccccc4F)c3n2)cn1` [Example 112, 1-(4-((1-(2-Fluorobenzyl)-1H-pyrazolo[3,4-d]pyrimidin-6-yl)amino)-1H-pyrazol-1-yl)-2-methylpropan-2-ol], for which the values for the IC50 against JAK2 and against JAK3 were 1 to 10 µM and less than 0.1 µM, respectively.

Consider `Cc1nn(CCO)cc1Nc1ncc2cnn(Cc3ccccc3)c2n1` [Example 113, 2-(4-((1-Benzyl-1H-pyrazolo[3,4-d]pyrimidin-6-yl)amino)-3-methyl-1H-pyrazol-1-yl)ethanol], for which the IC50 on JAK2 is 1 to 10 µM; against JAK3, less than 0.1 µM.

`Cn1cc(Nc2ncc3cnn(Cc4ccccc4OCc4ccccc4)c3n2)cn1` [Example 114, 1-(2-(Benzyloxy)benzyl)-N-(1-methyl-1H-pyrazol-4-yl)-1H-pyrazolo[3,4-d]pyrimidin-6-amine]: the IC50 is not below 10 µM at JAK2 and 0.1 to 1 µM at JAK3.

Regarding `Cc1c(F)cccc1Cn1ncc2cnc(Nc3cnn(C)c3)nc21` [Example 115, 1-(3-Fluoro-2-methylbenzyl)-N-(1-methyl-1H-pyrazol-4-yl)-1H-pyrazolo[3,4-d]pyrimidin-6-amine], the IC50 is 1 to 10 µM against JAK2 and less than 0.1 µM at JAK3.

`Cc1ccc(F)cc1Cn1ncc2cnc(Nc3cnn(C)c3)nc21` [Example 116]: the IC50 against JAK2 was 0.1 to 1 µM; against JAK3, less than 0.1 µM.

For the compound `Cc1cccc(F)c1Cn1ncc2cnc(Nc3cnn(C)c3)nc21` [Example 117, 1-(2-Fluoro-6-methylbenzyl)-N-(1-methyl-1H-pyrazol-4-yl)-1H-pyrazolo[3,4-d]pyrimidin-6-amine], the IC50 on JAK2 was 1 to 10 µM; on JAK3, less than 0.1 µM.

For the compound `FC(F)Cn1cc(Nc2ncc3cnn(Cc4ccccc4)c3n2)cn1` [Example 118, 1-Benzyl-N-(1-(2,2-difluoroethyl)-1H-pyrazol-4-yl)-1H-pyrazolo[3,4-d]pyrimidin-6-amine], the IC50 is 1 to 10 µM against JAK2 and less than 0.1 µM against JAK3.

On to `COc1nn(CC(F)F)cc1Nc1ncc2cnn(Cc3ccccc3)c2n1` [Example 119, 1-Benzyl-N-(1-(2,2-difluoroethyl)-3-methoxy-1H-pyrazol-4-yl)-1H-pyrazolo[3,4-d]pyrimidin-6-amine], for which the IC50 was not below 10 µM on JAK2 and 0.1 to 1 µM at JAK3.

With `Cc1nn(CC(F)F)cc1Nc1ncc2cnn(Cc3ccccc3)c2n1` [Example 120, 1-Benzyl-N-(1-(2,2-difluoroethyl)-3-methyl-1H-pyrazol-4-yl)-1H-pyrazolo[3,4-d]pyrimidin-6-amine], the IC50 was not below 10 µM on JAK2 and 0.1 to 1 µM on JAK3.

Consider `NS(=O)(=O)c1ccc(-n2ncc3cnc(Nc4cnn(CCO)c4)nc32)cc1` [Example 121, 4-(6-((1-(2-Hydroxyethyl)-1H-pyrazol-4-yl)amino)-1H-pyrazolo[3,4-d]pyrimidin-1-yl)benzenesulfonamide], for which the IC50 at JAK2 was 0.1 to 1 µM; against JAK3, less than 0.1 µM.

Consider `Cn1cc(Nc2ncc3cnn(-c4cccc(S(N)(=O)=O)c4)c3n2)cn1` [Example 122, 3-(6-((1-Methyl-1H-pyrazol-4-yl)amino)-1H-pyrazolo[3,4-d]pyrimidin-1-yl)benzenesulfonamide], for which the IC50 against JAK2 is 1 to 10 µM; on JAK3, 0.1 to 1 µM.

As to `CCN(CC)CCn1cc(Nc2ncc3cnn(Cc4ccccc4F)c3n2)cn1` [Example 123, N-(1-(2-(Diethylamino)ethyl)-1H-pyrazol-4-yl)-1-(2-fluorobenzyl)-1H-pyrazolo[3,4-d]pyrimidin-6-amine], the IC50 at JAK2 was 0.1 to 1 µM; at JAK3 it was less than 0.1 µM.

In the case of `Fc1ccccc1Cn1ncc2cnc(Nc3cnn(CCN4CCOCC4)c3)nc21` [Example 124, 1-(2-Fluorobenzyl)-N-(1-(2-morpholinoethyl)-1H-pyrazol-4-yl)-1H-pyrazolo[3,4-d]pyrimidin-6-amine], the IC50 was 0.1 to 1 µM against JAK2 and less than 0.1 µM on JAK3.

On to `CN(C)CCCn1cc(Nc2ncc3cnn(Cc4ccccc4F)c3n2)cn1` [Example 125, N-(1-(3-(Dimethylamino)propyl)-1H-pyrazol-4-yl)-1-(2-fluorobenzyl)-1H-pyrazolo[3,4-d]pyrimidin-6-amine], for which the IC50 against JAK2 was 0.1 to 1 µM; against JAK3, less than 0.1 µM.

Take `CC(C)S(=O)(=O)Nc1ccccc1Cn1ncc2cnc(Nc3cnn(C)c3)nc21` [Example 126, N-(2-((6-((1-Methyl-1H-pyrazol-4-yl)amino)-1H-pyrazolo[3,4-d]pyrimidin-1-yl)methyl)phenyl)propane-2-sulfonamide]: the IC50 was 1 to 10 µM on JAK2 and less than 0.1 µM against JAK3.

As for `NS(=O)(=O)c1ccc(-n2ncc3cnc(Nc4cnn(CC(F)F)c4)nc32)cc1` [Example 127, 4-(6-((1-(2,2-Difluoroethyl)-1H-pyrazol-4-yl)amino)-1H-pyrazolo[3,4-d]pyrimidin-1-yl)benzenesulfonamide], the IC50 fell in the range of 1 to 10 µM at JAK2 and 0.1 to 1 µM on JAK3.

`Fc1ccccc1Cn1ncc2cnc(Nc3cnn(CC(F)F)c3)nc21` [Example 128, N-(1-(2,2-Difluoroethyl)-1H-pyrazol-4-yl)-1-(2-fluorobenzyl)-1H-pyrazolo[3,4-d]pyrimidin-6-amine]: the values for the IC50 on JAK2 and against JAK3 were 1 to 10 µM and less than 0.1 µM, respectively.

In the case of `Fc1ccc(F)c(Cn2ncc3cnc(Nc4cnn(CC(F)F)c4)nc32)c1` [Example 129, 1-(2,5-Difluorobenzyl)-N-(1-(2,2-difluoroethyl)-1H-pyrazol-4-yl)-1H-pyrazolo[3,4-d]pyrimidin-6-amine], the IC50 against JAK2 was 0.1 to 1 µM; against JAK3, less than 0.1 µM.

`N#Cc1ccc(F)cc1Cn1ncc2cnc(Nc3cnn(CC(F)F)c3)nc21` [Example 130, 2-((6-((1-(2,2-Difluoroethyl)-1H-pyrazol-4-yl)amino)-1H-pyrazolo[3,4-d]pyrimidin-1-yl)methyl)-4-fluorobenzonitrile]: the IC50 was 0.1 to 1 µM against JAK2 and less than 0.1 µM on JAK3.

On to `CS(=O)(=O)Nc1ccccc1Cn1ncc2cnc(Nc3cnn(CC(F)F)c3)nc21` [Example 131, N-(2-((6-((1-(2,2-Difluoroethyl)-1H-pyrazol-4-yl)amino)-1H-pyrazolo[3,4-d]pyrimidin-1-yl)methyl)phenyl)methanesulfonamide hydrochloride], for which the IC50 was 0.1 to 1 µM at JAK2 and less than 0.1 µM against JAK3.

In the case of `COCCOc1cccc(Cn2ncc3cnc(Nc4cnn(C)c4)nc32)c1` [Example 132, 1-(3-(2-Methoxyethoxy)benzyl)-N-(1-methyl-1H-pyrazol-4-yl)-1H-pyrazolo[3,4-d]pyrimidin-6-amine], the IC50 against JAK2 was not below 10 µM; against JAK3, less than 0.1 µM.

Regarding `CNC(=O)Cn1cc(Nc2ncc3cnn(Cc4ccccc4)c3n2)cn1` [Example 133, 2-(4-((1-Benzyl-1H-pyrazolo[3,4-d]pyrimidin-6-yl)amino)-1H-pyrazol-1-yl)-N-methylacetamide], the IC50 against JAK2 is 1 to 10 µM; against JAK3, less than 0.1 µM.
